Source: the NIST ThermoML archive (doi:10.1016/j.jct.2018.03.017)
Where “and” joins values, the source holds several entries; their conditions need not be identical. Identical values can stand only once. Numbers after ± are expanded uncertainties.

Assay: xn = mol fraction of the nth substance listed
Conditions: 96 kPa, Liquid, Pycnometric method

C1CCC2=NCCCN2CC1 [1,8-diaza-7-bicyclo[5.4.0]undecene] + OCC(O)CO
mass density
Conditions	288.15 K	293.15 K	298.15 K	303.15 K	308.15 K	313.15 K	318.15 K	323.15 K	328.15 K
x1 = 0.0501	1251.8 ± 8.6 kg/m3	–	1245.4 ± 8.6 kg/m3	–	1239 ± 8.6 kg/m3	–	1232.2 ± 8.6 kg/m3	–	1224.9 ± 8.6 kg/m3
x1 = 0.0909	1238.4 ± 8.6 kg/m3	–	1231.7 ± 8.6 kg/m3	–	1224.7 ± 8.6 kg/m3	–	1217.1 ± 8.6 kg/m3	–	1208.3 ± 8.6 kg/m3
x1 = 0.0926	–	1236.7 ± 8.6 kg/m3	–	1229.7 ± 8.6 kg/m3	–	1222.9 ± 8.6 kg/m3	–	1216 ± 8.6 kg/m3	–
x1 = 0.1667	1211.2 ± 8.6 kg/m3	–	1204.2 ± 8.6 kg/m3	–	1196.4 ± 8.6 kg/m3	–	1188.2 ± 8.6 kg/m3	–	1180.2 ± 8.6 kg/m3
x1 = 0.1902	–	1197.8 ± 8.6 kg/m3	–	1191.9 ± 8.6 kg/m3	–	1184.5 ± 8.6 kg/m3	–	1177.6 ± 8.6 kg/m3	–
x1 = 0.2	1200.6 ± 8.6 kg/m3	–	1192.3 ± 8.6 kg/m3	–	1184.9 ± 8.6 kg/m3	–	1176.9 ± 8.6 kg/m3	–	1170.9 ± 9.6 kg/m3 and 1169.4 ± 8.6 kg/m3
x1 = 0.2153	1195.3 ± 8.6 kg/m3	–	1187 ± 8.6 kg/m3	–	1179.6 ± 8.6 kg/m3	–	1171.5 ± 8.6 kg/m3	–	1164.2 ± 8.6 kg/m3
x1 = 0.2306	1190.3 ± 8.6 kg/m3	–	1181.8 ± 8.6 kg/m3	–	1174.6 ± 8.6 kg/m3	–	1166.7 ± 8.6 kg/m3	–	1158.9 ± 8.5 kg/m3
x1 = 0.2998	–	1161.7 ± 8.5 kg/m3	–	1156.4 ± 8.5 kg/m3	–	1149.2 ± 8.5 kg/m3	–	1142.5 ± 8.5 kg/m3	–
x1 = 0.3059	1167.2 ± 8.5 kg/m3	–	1158 ± 8.5 kg/m3	–	1150.5 ± 8.5 kg/m3	–	1142.9 ± 8.5 kg/m3	–	1136 ± 8.5 kg/m3
x1 = 0.3333	1159.4 ± 8.5 kg/m3	–	1149.8 ± 8.5 kg/m3	–	1142.5 ± 8.5 kg/m3	–	1134.9 ± 8.5 kg/m3	–	1128 ± 8.5 kg/m3
x1 = 0.3996	–	1133.2 ± 8.5 kg/m3	–	1128.3 ± 8.5 kg/m3	–	1121.2 ± 8.5 kg/m3	–	1114.6 ± 8.5 kg/m3	–
x1 = 0.4011	1141.5 ± 8.5 kg/m3	–	1131.6 ± 8.5 kg/m3	–	1124.1 ± 8.5 kg/m3	–	1117.3 ± 8.5 kg/m3	–	1109.7 ± 8.5 kg/m3
x1 = 0.5	1117.4 ± 8.5 kg/m3	–	1107.1 ± 9.6 kg/m3 and 1108.1 ± 8.5 kg/m3	–	1100.2 ± 8.5 kg/m3	–	1091.1 ± 9.6 kg/m3 and 1093.5 ± 8.5 kg/m3	–	1086 ± 8.5 kg/m3
x1 = 0.5032	–	1108.7 ± 8.5 kg/m3	–	1102.3 ± 8.5 kg/m3	–	1095.3 ± 8.5 kg/m3	–	1087.4 ± 8.5 kg/m3	–
x1 = 0.5632	1102.9 ± 8.5 kg/m3	–	1093.7 ± 8.5 kg/m3	–	1086.4 ± 8.5 kg/m3	–	1079.3 ± 8.5 kg/m3	–	1071.9 ± 8.5 kg/m3
x1 = 0.5995	–	1088 ± 8.5 kg/m3	–	1081.9 ± 8.5 kg/m3	–	1075.9 ± 8.5 kg/m3	–	1068.3 ± 8.5 kg/m3	–
x1 = 0.625	1089.8 ± 8.5 kg/m3	–	1081 ± 8.5 kg/m3	–	1073.9 ± 8.5 kg/m3	–	1066.7 ± 8.5 kg/m3	–	1059.1 ± 8.5 kg/m3
x1 = 0.6992	–	1069.6 ± 8.5 kg/m3	–	1064.2 ± 8.5 kg/m3	–	1056.8 ± 8.5 kg/m3	–	1049.7 ± 8.5 kg/m3	–
x1 = 0.75	1066.1 ± 9.6 kg/m3 and 1065.4 ± 8.5 kg/m3	–	1058.1 ± 8.5 kg/m3	–	1050.9 ± 8.5 kg/m3	–	1042.7 ± 8.5 kg/m3	–	1035.3 ± 8.5 kg/m3
x1 = 0.7998	–	1052.3 ± 8.5 kg/m3	–	1045.7 ± 8.5 kg/m3	–	1038.7 ± 8.5 kg/m3	–	1031.5 ± 8.5 kg/m3	–
x1 = 0.8333	1051.7 ± 8.5 kg/m3	–	1044.3 ± 8.5 kg/m3	–	1037 ± 8.5 kg/m3	–	1028.7 ± 8.5 kg/m3	–	1021.1 ± 8.5 kg/m3
x1 = 0.9001	–	1030.8 ± 8.5 kg/m3	–	1028.9 ± 8.5 kg/m3	–	1021.2 ± 8.5 kg/m3	–	1013.9 ± 8.5 kg/m3	–
x1 = 1	1020.6 ± 8.2 kg/m3	1017.1 ± 8.2 kg/m3	1014.1 ± 8.2 kg/m3	1010.9 ± 8.2 kg/m3	1007.4 ± 8.2 kg/m3	1004.6 ± 8.2 kg/m3	1000.8 ± 8.2 kg/m3	998.4 ± 8.2 kg/m3	994.2 ± 8.2 kg/m3
